Converted amounts (≈) assume the structure as drawn. Read-outs that look alike come from different tables or passages of the source.
Legend:
[1] = system: MRSA USA100; experiment: MIC against MRSA USA100; type: cell-based, Staphylococcus aureus; settings: Staphylococcus aureus, read-out: MIC, Staphylococcus aureus isolate USA100
Description: (§1) 96-well plates were seeded with 5 × 10^5 CFU/mL in a volume of 100 μL of tryptic soy broth (TSB) per well for Staphylococcus aureus assays. Compounds were dissolved in DMSO and serially diluted as 1:2 dilutions to give the final concentration ranging from 0.25 to 128 μg/mL per well. […] Plates were incubated at 37 °C for 18–20 hours and MIC was determined by reading OD625. For M.avium and M.abscessus, 7H9 broth media was used for determination of MICs. The final concentration was 5 × 10^5 CFU/mL in each well. The plate was incubated at 37 °C for 7–8 days and MICs were determined using a Tecan microplate reader (OD625) and resazurin reduction assay.

[2] = system: MRSA USA200; experiment: MIC against MRSA USA200; type: cell-based, Staphylococcus aureus; settings: for MIC: Staphylococcus aureus, read-out: MIC, Staphylococcus aureus isolate USA200
Description: as §1

[3] = system: MRSA USA300; experiment: MIC against MRSA USA300; type: cell-based, Staphylococcus aureus; settings: Staphylococcus aureus; TSB, 37 °C, 18–20 hours; read-out: MIC, Staphylococcus aureus isolate USA300
Description: as §1

[4] = system: MRSA USA400; experiment: MIC against MRSA USA400; type: cell-based, Staphylococcus aureus; settings: TSB, 37 °C, 18–20 hours; for MIC: Staphylococcus aureus, read-out: MIC, Staphylococcus aureus isolate USA400
Description: as §1

[5] = system: MRSA USA500; experiment: MIC against MRSA USA500; type: cell-based, Staphylococcus aureus; settings: TSB, 37 °C, 18–20 hours; for MIC: Staphylococcus aureus, read-out: MIC, Staphylococcus aureus isolate USA500
Description: as §1

[6] = system: MRSA USA700; experiment: MIC against MRSA USA700; type: cell-based, Staphylococcus aureus; settings: for MIC: Staphylococcus aureus, read-out: MIC, Staphylococcus aureus isolate USA700
Description: as §1

[7] = system: MRSA USA800; experiment: MIC against MRSA USA800; type: cell-based, Staphylococcus aureus; settings: Staphylococcus aureus; TSB, 37 °C, 18–20 hours; read-out: MIC, Staphylococcus aureus isolate USA800
Description: as §1

[8] = system: Methicillin susceptible Staphylococcus aureus; experiment: MIC against MSSA; type: cell-based; settings: for MIC: MSSA
Description: as §1

[9] = system: Enterococcus faecalis; experiment: MIC against Enterococcus faecalis; type: cell-based; settings: read-out: MIC, EF
[10] = system: Pseudomonas aeruginosa; experiment: MIC against Pseudomonas aeruginosa; type: cell-based; settings: read-out: MIC, PA
[11] = system: Mycobacterium avium; experiment: MIC against Mycobacterium avium; type: cell-based; settings: 7H9 broth, 7–8 days
Description: as §1

[12] = system: Mycobacterium abscessus; experiment: MIC against Mycobacterium abscessus; type: cell-based; settings: Mycobacteroides abscessus, 7H9 broth, 7–8 days
Description: as §1

[13] = system: Gram-positive bacteria; experiment: MIC against Gram-positive bacteria (summary); type: cell-based; settings: range over all tested Gram-positive bacteria
Description: as §1

Row | Structure (SMILES) | MIC ([1]; TSB, 37 °C, 18–20 hours) [µg/mL] | MIC [3] [µg/mL] | MIC [4] [µg/mL] | MIC ([6]; TSB, 37 °C, 18–20 hours) [µg/mL] | MIC [8] [µg/mL] | MIC [9] [µg/mL] | MIC [10] [µg/mL] | MIC [6] [µg/mL] | further results
1 | COc1ccc2ccc(OCCCCCCCCNCCc3ccc(Cl)cc3)cc2c1 [3b] | 6 (≈ 13.6 µM) | 6 (≈ 13.6 µM) | 4 (≈ 9.09 µM) | 8 (≈ 18.2 µM) | 4 (≈ 9.09 µM) | 0.5 (≈ 1.14 µM) | > 64 |  | MIC ([2]; TSB, 37 °C, 18–20 hours): 2 µg/mL (≈ 4.55 µM); MIC [5]: 8 µg/mL (≈ 18.2 µM); MIC [7]: 6 µg/mL (≈ 13.6 µM); MIC [11]: 4 µg/mL (≈ 9.09 µM); MIC [12]: 12 µg/mL (≈ 27.3 µM); MIC values against all Gram-positive bacteria (range) [13]: 0.5 to 16 µg/mL
2 | COc1ccc2ccc(OCCCCCCCCN3CCc4ccccc4C3)cc2c1 [3d] |  |  |  |  |  |  |  |  | MIC, Staphylococcus aureus isolate USA200 ([2]; TSB, 37 °C, 18–20 hours): >128 µg/mL; MIC, Staphylococcus aureus isolate USA400 [4]: 64 µg/mL (≈ 153 µM); MIC, Staphylococcus aureus isolate USA500 [5]: 128 µg/mL (≈ 307 µM); MIC, Staphylococcus aureus isolate USA700 ([6]; TSB, 37 °C, 18–20 hours): 32 µg/mL (≈ 76.6 µM); MIC, MSSA [8]: 32 µg/mL (≈ 76.6 µM)
3 | COc1ccc2ccc(OCCCCCCCCN3CCN(c4ccc(F)cc4)CC3)cc2c1 [3e] |  |  |  |  |  | > 128 |  | > 128 | 
4 | COc1ccc2ccc(OCCCCCCCCn3c4ccccc4c4ccccc43)cc2c1 [3f] |  |  |  |  |  |  |  | > 128 | MIC [1]: > 128 µg/mL
5 | COc1ccc2ccc(OCCCCCCCCN3C(=O)OC[C@@H]3Cc3ccccc3)cc2c1 [3g] |  |  | > 128 | > 128 | > 128 |  | > 128 |  | 
6 | COc1ccc2ccc(OCCCCCCCCN[C@@H]3CCOC3=O)cc2c1 [3h] |  |  | > 128 | > 128 | > 128 |  | > 128 |  | 
7 | COc1ccc2ccc(OCCCCCCCCN3CCC(F)CC3)cc2c1 [3i] |  |  |  |  |  |  |  | > 128 | 
8 | C=CCN(C)CCCOC/C=C/COc1ccc2ccc(OC)cc2c1 [4a] |  |  |  |  |  |  |  | 128 (≈ 360 µM) | MIC [2]: 128 µg/mL (≈ 360 µM)
9 | COc1ccc2ccc(OC/C=C/COCCCN3CCCCC3)cc2c1 [4b] |  |  |  |  |  |  | > 128 | 128 (≈ 346 µM) | 
10 | COc1ccc2ccc(OC/C=C/COCCCNCCc3ccc(F)cc3)cc2c1 [4c] | 8 (≈ 18.9 µM) | 8 (≈ 18.9 µM) | 8 (≈ 18.9 µM) | 16 (≈ 37.8 µM) | 16 (≈ 37.8 µM) |  | > 64 |  | MIC [5]: 16 µg/mL (≈ 37.8 µM); MIC [7]: 16 µg/mL (≈ 37.8 µM); MIC [11]: 8 µg/mL (≈ 18.9 µM)
11 | Fc1ccc(CCNCCCCCCCCOc2ccc3cc(Br)ccc3c2)cc1 [5a] | 16 (≈ 33.9 µM) | 4 (≈ 8.47 µM) | 8 (≈ 16.9 µM) | 4 (≈ 8.47 µM) |  | 2 (≈ 4.23 µM) |  |  | MIC ([2]; TSB, 37 °C, 18–20 hours): 4 µg/mL (≈ 8.47 µM)
12 | Clc1ccc(CCNCCCCCCCCOc2ccc3cc(Br)ccc3c2)cc1 [5b] | > 128 | 32 (≈ 65.5 µM) | 64 (≈ 131 µM) | 64 (≈ 131 µM) |  | 16 (≈ 32.7 µM) |  |  | MIC ([2]; TSB, 37 °C, 18–20 hours): 16 µg/mL (≈ 32.7 µM)

From publication PMC5223195, “Novel long-chain compounds with both immunomodulatory and MenA inhibitory activities against Staphylococcus aureus and its biofilm” (Scientific Reports, 2017)
